One assay deals with T1, full-length human PKCι (Homo sapiens, UniProt P41743).
T1 construct: Recombinant, full-length human PKCι expressed in Sf21 insect cells is also commercially available; purchased; host or cells: Sf21 insect cells
T1 sequence (P41743 1-596): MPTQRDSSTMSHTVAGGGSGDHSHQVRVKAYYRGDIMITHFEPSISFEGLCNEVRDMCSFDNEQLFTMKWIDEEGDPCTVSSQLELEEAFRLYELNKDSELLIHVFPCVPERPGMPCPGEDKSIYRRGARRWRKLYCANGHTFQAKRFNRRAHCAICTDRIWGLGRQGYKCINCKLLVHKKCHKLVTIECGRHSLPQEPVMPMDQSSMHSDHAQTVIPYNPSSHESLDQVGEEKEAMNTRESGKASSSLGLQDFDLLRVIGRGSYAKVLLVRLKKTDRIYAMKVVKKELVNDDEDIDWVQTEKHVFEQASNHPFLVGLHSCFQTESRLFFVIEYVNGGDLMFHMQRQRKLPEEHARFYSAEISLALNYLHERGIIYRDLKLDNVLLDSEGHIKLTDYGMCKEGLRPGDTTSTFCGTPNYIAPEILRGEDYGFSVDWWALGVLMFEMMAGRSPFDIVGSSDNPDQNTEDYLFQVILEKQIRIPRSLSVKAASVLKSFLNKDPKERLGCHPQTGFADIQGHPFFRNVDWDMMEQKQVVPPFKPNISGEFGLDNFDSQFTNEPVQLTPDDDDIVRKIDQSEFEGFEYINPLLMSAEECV
In words: PKCι IC50 IMAP fluorescence polarisation assay, full-length enzyme. To be noted: full length PKCi at 15 μM ATP; read-out: IC50 in IMAP assay against full length PKCi. Type of assay: biochemical.
`CNCC#Cc1csc2c(NC[C@@H](N)Cc3ccccc3)nc(-c3ccncc3)nc12` [compound 538, (S)-N*1*-[7-(3-Methylamino-prop-1-ynyl)-2-pyridin-4-yl-thieno[3,2-d]pyrimidin-4-yl]-3-phenyl-propane-1,2-diamine]: the IC50 (as a rule, the concentration needed to halve the response being measured) is 0.1 to 1 µM.
The same measure, in the same setting: the same measure for `NCCNc1nc(-c2ccncc2)nc2c(Br)csc12` [compound 349, N*1*-(7-Bromo-2-pyridin-4-yl-thieno[3,2-d]pyrimidin-4-yl)-ethane-1,2-diamine]: 0.1 to 1 µM.
As for `C/C=C\c1csc2c(NC[C@@H](N)Cc3ccccc3)nc(-c3ccncc3)nc12` [compound 407, (S)-3-Phenyl-N*1*-[7-((Z)-propenyl)-2-pyridin-4-yl-thieno[3,2-d]pyrimidin-4-yl]-propane-1,2-diamine], the IC50 was < 0.1 µM.
Still for that read-out and setting: the same measure for `Fc1cccc(Nc2csc3c(N[C@@H]4CCNC4)nc(-c4ccncc4F)nc23)c1` [compound 499, N*7*-(3-Fluoro-phenyl)-2-(3-fluoro-pyridin-4-yl)-N*4*-(R)-pyrrolidin-3-yl-thieno[3,2-d]pyrimidine-4,7-diamine]: 1 to 10 µM; for `O=S(=O)(Nc1cc(-c2nc(N[C@@H]3CCNC3)c3sccc3n2)ccn1)C1CC1` [compound 622, Cyclopropanesulfonic acid {4-[4-((R)-pyrrolidin-3-ylamino)-thieno[3,2-d]pyrimidin-2-yl]-pyridin-2-yl}-amide]: 10 to 40 µM.
On the same count and under the same terms, the same measure for `Fc1ccccc1Nc1csc2c(N[C@@H]3CCNC3)nc(-c3ccncc3F)nc12` [compound 500, N*7*-(2-Fluoro-phenyl)-2-(3-fluoro-pyridin-4-yl)-N*4*-(R)-pyrrolidin-3-yl-thieno[3,2-d]pyrimidine-4,7-diamine]: 0.1 to 1 µM.
Still for that read-out and setting: the same measure for `c1ccc(Nc2cc(-c3nc(N[C@@H]4CCNC4)c4sccc4n3)ccn2)nc1` [compound 600, {2-[2-(Pyridin-2-ylamino)-pyridin-4-yl]-thieno[3,2-d]pyrimidin-4-yl}-(R)-pyrrolidin-3-yl-amine]: 1 to 10 µM; for `O=S(=O)(Nc1cc(-c2nc(N[C@@H]3CCNC3)c3sccc3n2)ccn1)c1ccccc1` [compound 576, N-{4-[4-((R)-Pyrrolidin-3-ylamino)-thieno[3,2-d]pyrimidin-2-yl]-pyridin-2-yl}-benzenesulfonamide]: 10 to 40 µM; for `COc1cccc(OCC(C)C)c1-c1c(C)sc2c(NC[C@@H](N)Cc3ccccc3)nc(-c3ccncc3)nc12` [compound 455, (S)-N*1*-[7-(2-Isobutoxy-6-methoxy-phenyl)-6-methyl-2-pyridin-4-yl-thieno[3,2-d]pyrimidin-4-yl]-3-phenyl-propane-1,2-diamine]: 10 to 40 µM.
As to `O=C(Nc1cc(-c2nc(N[C@@H]3CCNC3)c3sccc3n2)ccn1)c1cccs1` [compound 595, Thiophene-2-carboxylic acid {4-[4-((R)-pyrrolidin-3-ylamino)-thieno[3,2-d]pyrimidin-2-yl]-pyridin-2-yl}-amide], the IC50 lay in the range of 0.1 to 1 µM.
Still for that read-out and setting: the same measure for `c1cc(-c2nc(N[C@@H]3CCNC3)c3sccc3n2)cc(NC2CC2)n1` [compound 594, [2-(2-Cyclopropylamino-pyridin-4-yl)-thieno[3,2-d]pyrimidin-4-yl]-(R)-pyrrolidin-3-yl-amine]: 1 to 10 µM; for `N[C@H](CNc1nc(-c2ccncc2)nc2c(/C=C/C3CC3)csc12)Cc1ccccc1` [compound 405, (S)-N*1*-[7-((E)-2-Cyclopropyl-vinyl)-2-pyridin-4-yl-thieno[3,2-d]pyrimidin-4-yl]-3-phenyl-propane-1,2-diamine]: < 0.1 µM; for `Cc1sc2c(NC[C@@H](N)Cc3ccccc3)nc(-c3ccncc3)nc2c1-c1ccn[nH]1` [compound 388, (S)—N*1*-[6-methyl-7-(2H-pyrazol-3-yl)-2-pyridin-4-yl-thieno[3,2-d]pyrimidin-4-yl]-3-phenyl-propane-1,2-diamine]: < 0.1 µM.
Same read-out and setting: the same measure for `Cc1c(-c2ccn[nH]2)sc2c(N[C@@H]3CCNC3)nc(-c3ccncc3)nc12` [compound 389, [7-Methyl-6-(2H-pyrazol-3-yl)-2-pyridin-4-yl-thieno[3,2-d]pyrimidin-4-yl]-(R)-pyrrolidin-3-yl-amine]: 1 to 10 µM; for `Fc1cnc(Nc2ccccc2)cc1-c1nc(N[C@@H]2CCNC2)c2sccc2n1` [compound 579, [2-(5-Fluoro-2-phenylamino-pyridin-4-yl)-thieno[3,2-d]pyrimidin-4-yl]-(R)-pyrrolidin-3-yl-amine]: 1 to 10 µM.
On the same count and under the same terms, the same measure for `O=C(Nc1cc(-c2nc(N[C@@H]3CCNC3)c3sccc3n2)ccn1)N1CCCCC1` [compound 584, Piperidine-1-carboxylic acid {4-[4-((R)-pyrrolidin-3-ylamino)-thieno[3,2-d]pyrimidin-2-yl]-pyridin-2-yl}-amide]: 1 to 10 µM.
With `N[C@H](CNc1nc(-c2ccncc2)nc2c(-n3ccnn3)csc12)Cc1ccccc1` [compound 562, (S)-3-Phenyl-N*1*-(2-pyridin-4-yl-7-[1,2,3]triazol-1-yl-thieno[3,2-d]pyrimidin-4-yl)-propane-1,2-diamine], the IC50 lay in the range of 0.1 to 1 µM.
Same read-out and setting: the same measure for `C[C@@H](O)C#Cc1csc2c(NC[C@@H](N)Cc3ccccc3)nc(-c3ccncc3)nc12` [compound 534, (R)-4-[4-((S)-2-Amino-3-phenyl-propylamino)-2-pyridin-4-yl-thieno[3,2-d]pyrimidin-7-yl]-but-3-yn-2-ol]: < 0.1 µM; for `N[C@H](CNc1nc(-c2cc[n+]([O-])cc2)nc2c(Br)csc12)Cc1ccccc1` [compound 564, (S)—N*1*-[7-Bromo-2-(1-oxy-pyridin-4-yl)-thieno[3,2-d]pyrimidin-4-yl]-3-phenyl-propane-1,2-diamine]: 1 to 10 µM; for `Cc1[nH]ncc1-c1nc(N[C@@H]2CCNC2)c2sccc2n1` [compound 633, [2-(5-Methyl-1H-pyrazol-4-yl)-thieno[3,2-d]pyrimidin-4-yl]-(R)-pyrrolidin-3-yl-amine]: 10 to 40 µM.
Still for that read-out and setting: the same measure for `C[C@H](O)CC#Cc1csc2c(NC[C@@H](N)Cc3ccccc3)nc(-c3ccncc3)nc12` [compound 540, (S)-5-[4-((S)-2-Amino-3-phenyl-propylamino)-2-pyridin-4-yl-thieno[3,2-d]pyrimidin-7-yl]-pent-4-yn-2-ol]: 0.1 to 1 µM.

The same assay, now with this note: full length PKCi at 15 μM ATP; read-out: IC50 in IMAP assay against full length PKCi (Activity).
For `NC(CNc1nc(-c2ccncc2)nc2sc3c(c12)CCCC3)Cc1c[nH]c2ccccc12` (stereo in doubt) [compound 63, (S)-3-(1H-Indol-3-yl)-N*1*- (2-pyridin-4-yl-5,6,7,8-tetrahydro-benzo[4,5]thieno[2,3-d]pyrimidin-4-yl)-propane-1,2-diamine], the IC50 lay in the range of 1 to 10 µM.
The same measure, in the same setting: the same measure for `N[C@@H](CNc1nc(-c2ccncc2)nc2sc3c(c12)CCCC3)Cc1csc2ccccc12` [compound 61, (R)-3-Benzo[b]thiophen-3-yl-N*1*-(2-pyridin-4-yl-5,6,7,8-tetrahydro-benzo[4,5]thieno[2,3-d]pyrimidin-4-yl)-propane-1,2-diamine]: 1 to 10 µM.
The same measure, in the same setting: the same measure for `N[C@H](CNc1nc(-c2ccncc2)nc2sc3c(c12)CCOC3)Cc1ccccc1` [compound 82, (S)-3-Phenyl-N*1*-(2-pyridin-4-yl-5,8-dihydro-6H-pyrano[4′,3′:4,5]thieno[2,3-d]pyrimidin-4-yl)-propane-1,2-diamine]: 1 to 10 µM.

The values are drawn from US10183950B2, “Thienopyrimidine inhibitors of atypical protein kinase C” (Cancer Research Technology Limited, priority 2011, dated 2019).
